# From patent US10450613B2, “EGFR/NEDD9/TGF-β interactome and methods of use thereof for the identification of agents having efficacy in the treatment of hyperproliferative disorders” (Fox Chase Cancer Center, priority 2007, dated 2019)
# Legend:
# cancer cells = assay: Drug synergy testing (Chou-Talalay CI), cell line not stated (FIG. 17B); type: cell-based
# Experimental: (§1) The coefficient of interaction (CI) between pharmacological inhibitors was established by the Chou-Talalay method (Chou et al., (1984) Adv Enzyme Regul 22:27). The software package CalcuSyn (BioSoft, UK) was used to automate calculations. Briefly, for each drug tested, an IC50 curve was established in each cell line, and used to select combination doses of drugs for subsequent synergy tests. 3500 cells were plated per well in 96-well plates. After 24 hours, cells were treated with serial dilutions of individual inhibitors, or combinations of two inhibitors maintained at a constant molar ratio. After 72 hours incubation, cell viability was measured using either CellTiter Blue (Promega, USA) or a WST1 assay (Roche Applied Science, Indianapolis, Ind.). The CI values for each dose and corresponding cytotoxicity were expressed as the fraction affected (Fa) and were calculated using CalcuSyn computer software and presented as Fa-CI plots. CI values <1 indicate synergy, and <0.5 strong synergy, between the two agents in producing cytotoxic effect.
# A431 cells [1] = assay: Drug synergy testing (Chou-Talalay CI), viability; type: cell-based, human; conditions: 72 hours, CI <1 synergy, <0.5 strong synergy
# Experimental: as §1
# HCT116 cells = assay: Drug synergy testing (Chou-Talalay CI), viability; type: cell-based, human; conditions: HCT116; 72 hours; CI <1 synergy, <0.5 strong synergy
# Experimental: as §1
# A431 cells [2] = assay: Cell motility, wound healing assay; type: cell-based, human; conditions: 0.5 μM erlotinib with 0.5 μM Stattic or 0.25 μM Ro-318220, 18 hours
# Experimental: Soft agar assays were done essentially as described (10). Cells were seeded at 2000 cells per well and grown for 2-3 weeks. Colonies were stained with thiazolyl blue tetrazolium bromide, and scored using a Nikon SMZ1500 microscope coupled with Cool Snap charge coupled device camera (Roper Scientific, Inc., Tucson, Ariz.) with Image Pro-Plus software (Media Cybernetics, Silver Spring, Md.). Survival curves were based on at least two concentration points, with values determined in at least two separate experiments, with each assay done in duplicate. Drug interactions were calculated as above using CalcuSyn software (Biosoft, Ferguson, Mo.) to establish the combination index (CI). For motility assays, movement of A431 cells grown in 1% FCS into a scratched area of the monolayer was monitored with a phase contrast 10× objective using an inverted microscope (Nikon TE2000). Images were obtained every 20 min for 18 hours. Areas of migration were estimated using MetaMorph software. For both studies, analysis of variance was used to determine the treatment effect for each comparison. The logarithm of normalized ratios (to vehicle control) was used in the analysis. Multiple hypothesis testing was accounted for by the false discovery rate method of Benjamini & Hochberg (supra).
# AKT = assay: Western analysis of AKT activation in A431 lysates (siRNA or inhibitors), basal and EGF-stimulated; type: cell-based, human; conditions: serum starvation or EGF stimulation (FIG. 16)
# Experimental: To measure the effect of siRNAs on the activity of EGFR effectors, cells were transfected with siRNA, and the culture media replaced with glutamine-supplemented serum-free DMEM at 24 hrs post-transfection. After overnight incubation, cells were treated with DMSO, erlotinib or PHA-680632 for 2 hrs, then either left untreated, or stimulated with EGF at 15 ng/ml for 15 minutes. Cell extracts were prepared using M-PER™ mammalian protein extraction buffer (Thermo Scientific, Rockford, Ill.) supplemented with the Halt™ phosphatase inhibitor cocktail (Thermo Scientific, Rockford, Ill.) and the Complete Mini™ protease inhibitor cocktail (Roche Diagnostics Gmbh, Manheim, Germany). Extracts were centrifuged at 15,000 g for 10 min at 4° C. Western signal detection was performed using antibodies to indicated proteins with LiCor technology (Lincoln, Nebr., USA) or standard X-ray film.
# A431 cells [3] = assay: Phosphoproteomic analysis, Proteome Profiler array of 46 signaling proteins; type: cell-based, human; conditions: A431, serum starved, EGF-stimulated (FIG. 19A)
# Experimental: For phosphoproteomic analysis, we used the Proteome Profiler™ array (R&D Systems, Minneapolis, Minn., USA) according to the manufacturer's protocol. In brief, A431 cells were grown for 24 hours in DMEM supplemented with L-glutamine and 1% FBS to 70% confluency. Cells then were either serum starved overnight or remained in the same media. Serum starved and cells incubated in 1% serum were either left untreated or incubated with IC30 concentrations of inhibitors for 3 hours. […] Serum-starved cells were subsequently stimulated with recombinant EGF (Sigma-Aldrich, USA) at 15 ng/mL for 15 minutes before lysis. For a subset of phospho-proteins, phosphorylation status was confirmed by Western blot. Quantification was done using ImageJ software.
# A431 cells [4] = assay: siRNA library sensitization screen, Alamar blue (CellTiter Blue) viability, sensitization index (SI) with erlotinib, panitumumab, U0126, CPT11 vs DMSO; type: cell-based, human; conditions: siRNA against the named gene, false discovery rate set at 5%; for Ratio (CPT11): sensitization to CPT11; for Ratio (Erlotinib): sensitization to erlotinib
# Excerpt: The custom siRNA library targeting 638 human genes was designed and synthesized with two siRNA duplexes for each gene target (Qiagen, Valencia, Calif.). Transfection conditions were established for the A431 […] (K-Ras wt, p53 mutant) cell line (data not shown) using PLK1 & GL2 siRNA controls to achieve Z′ values of 0.5 or greater. IC values using erlotinib, panitumumab, and camptothecin (CPT11) were established (data not shown). Details of establishment of Z′ factor for transfections, and statistical consideration for selection of preliminary positive candidates graphically outlined in FIG. 4B, and based on standard approaches described in detail in Whitehurst et al., (2007) Nature 446:815). For each gene targeted, two independent siRNA duplexes were combined and arrayed in 96-well plates with a layout intended to seed in regular positive siRNA (targeting PLK1) and negative control siRNA (targeting insect luciferase GL2, Thermo Fisher Scientific, USA) amongst test siRNAs. A reverse transfection protocol was used where siRNA at final concentration of 50 nM was mixed with Dharmafect 1 transfection reagent according to the manufacturer's instructions (Thermo Fisher, USA). Cells (3500 per well, resuspended in 1% FBS/DMEM) were added directly to wells using an automated liquid dispenser. At 24 hr following transfection, two replica plates were treated with drugs at previously established IC30 or 0.02% DMSO diluted in culture media. The viability at 96 hr post-transfection was assessed using Alamar blue (CellTiter Blue Viability Assay, Promega, USA). Dose-responses for each drug and cell line were retested in parallel with each screen.
# For screening, A431 cells were transfected with siRNA followed by exposure to vehicle (0.02% DMSO), or drug used at inhibitory concentrations of 30% KA. Viability was determined for each target gene and normalized to the averaged GL2 viability on each plate. Sensitization index (SI) was calculated for each individual well on a 96-well plate as SI=(Vdrug/GL2drug)/(VDMSO/GL2DMSO), where V was viability in wells transfected with targeting duplexes and GL2 was the averaged viability of 4 wells with non-targeting negative control siRNA on the same plate. All calculations were automated using cellHTS package within open source Bioconductor Package (on the web at bioconductor.org) (Gentleman et al. (2004) Genome Biol. 5:R80). The effect of drug treatment on viability was measured based on the normalized viabilities in the drug treated and vehicle wells using Limma (Smyth, G. K. (2004) Statistical Applications in genetics and molecular biology 3, Article 3). Limma borrows strength across genes based on an empirical Bayes approach and identifies statistically significant changes in viability by combining information from a set of gene-specific tests. Hits were identified based on statistical significance as well as biological significance. Statistical significance was determined by p-value controlled for the false discovery rate (FDR) using the Benjamini-Hochberg step-up method (Benjamini et al. (1995) J. Royal Stat Soc B 57:289) to account for multiple testing. […] Biological significance was arbitrarily defined as an increase or decrease in SI greater than 15%. Hits identified as statistically and biologically significant were further validated.
# Primary sensitizing hits obtained with erlotinib and/or cetuximab were further tested with erlotinib and DMSO in the A431 cell line by using 4 siRNA duplexes individually (the two originally used in the screen, plus two new non-overlapping RNA oligoribonucleotides), to confirm the sensitization phenotype at 10 nM and 50 nM concentrations. Hits were considered as validated by this method if at least 2 out of 4 siRNA reproduced the sensitization phenotype with SI≤0.85, FDR≤20% for each individual siRNA sequence in at least two independent experiments. […]
# [5] = tested on: A431, HCT116, DLD-1, DKS-8, LoVo, SCC61, PANC-1 and MIA PaCa-2 cell lines; assay: Cell line specificity of hit activity: siRNA sensitization to erlotinib, cetuximab and CPT11, and intrinsic viability; type: cell-based, human; conditions: network analysis of stronger hits (FIG. 14A)
# Experimental: Cell line specificity of hit activity. Of the confirmed set of 61 siRNA targets identified for erlotinib in A431 cells, 45 were further tested for sensitization to erlotinib, cetuximab and camptothecin in A431 versus refractory adenocarcinoma cell lines for which optimal transfection conditions and drug sensitivity had been established. […] SI and statistical significance were calculated as in the validation experiments. All experiments were performed at least three times independently.
# In subsequent data analysis, two approaches were used. […] For all experiments performed with a given cell:drug combination (e.g., A431:erlotinib, or HCT116:CPT11) averages were determined based on at least three experimental runs. […]
# In additional experiments, we comparatively profiled the efficacy of the hit panel as sensitizers of erlotinib, cetuximab, and CPT11 across a set of cell lines, including A431, the colorectal adenocarcinoma cell lines HCT116, DLD-1, DKS-8, and LoVo, the head and neck squamous cell carcinoma cell line SCC61, and the pancreatic adenocarcinoma cell lines PANC-1 and MIA PaCa-2 (FIG. 13A). […] To compensate for this difference, we analyzed the data in two ways: first, by conventional threshold analysis (FIG. 13A, left), and second, by assessing the rank order of sensitization phenotype, using relaxed statistical criteria (FIG. 13A, right; see Materials and Methods). […]
compound,measurement,setting,value
O=C(Nc1cccc(Nc2nccc(Nc3cccc(C(F)(F)F)c3)n2)c1)C1CC1 [C1368],Synergy with erlotinib (Chou-Talalay CI),cancer cells,synergized
Cn1cc(C2=C(c3cn(CCCSC(=N)N)c4ccccc34)C(=O)NC2=O)c2ccccc21 [Ro-318220],Synergy with erlotinib in reducing viability (Chou-Talalay CI),A431 cells [1],synergized very significantly
same,Synergy with erlotinib in reducing viability (Chou-Talalay CI),HCT116 cells,synergized very significantly
same,"Cell motility, inhibitor in combination with erlotinib",A431 cells [2],significantly reduced tumor cell motility
O=[N+]([O-])c1ccc2c(c1)S(=O)(=O)C=C2 [Stattic],Synergy with erlotinib in reducing viability (Chou-Talalay CI),A431 cells [1],synergized with erlotinib
same,Synergy with erlotinib in reducing viability (Chou-Talalay CI),HCT116 cells,synergized with erlotinib
same,"Akt S473 phosphorylation, inhibitor in combination with erlotinib",AKT,significantly reduced phosphorylation
same,"Cell motility, inhibitor in combination with erlotinib",A431 cells [2],no statistically significant synergy
Cn1cc(C2=C(c3cn(C4CCN(Cc5ccccn5)CC4)c4ccccc34)C(=O)NC2=O)c2ccccc21 [enzastaurin],Synergy with erlotinib in reducing viability (Chou-Talalay CI),A431 cells [1],synergized very significantly
same,Synergy with erlotinib in reducing viability (Chou-Talalay CI),HCT116 cells,synergized very significantly
same,"Akt S473 phosphorylation, inhibitor in combination with erlotinib",AKT,significantly reduced phosphorylation
C#Cc1cccc(Nc2ncnc3cc(OCCOC)c(OCCOC)cc23)c1 [erlotinib],"Phosphorylation of 46 signaling proteins, single agent",A431 cells [3],blocked EGF-induced activation of multiple signaling pathways
"GAB2 (sense CACCAATTCTGAAGACAACTA; target sequence only, further chemistry not given here)",Ratio (CPT11),A431 cells [4],0.83
"GRB14 (sense AAGAATGTATTTCACCTGCAA; target sequence only, antisense strand not given here)",Ratio (Erlotinib),A431 cells [4],0.54
"MAP3K1 (sense CACGCATGTCAAATTCTCATA; target sequence only, antisense strand not given here)",Ratio (Erlotinib),A431 cells [4],0.66
"PRKACB: siRNA duplexes of the custom library targeting PRKACB (sense CAGCCTGTGTAGTGTGACAAA; target sequence only, antisense strand not given here)",Ratio (CPT11),A431 cells [4],0.43
same,Ratio (Erlotinib),A431 cells [4],0.53
same,Ratio (Panitumumab),A431 cells [4]; sensitization to panitumumab,0.63
same,Sensitizing activity of stronger hits across cell lines,[5],strong sensitizers
